Read-outs that look alike come from different tables or passages of the source.
Columns and labels:
[1] = biological target: T1, KLK4 (Homo sapiens, UniProt Q9Y5K2); experiment: Selectivity screening, KLK4; format: biochemical; conditions: 50 μM compound, without Fe3+; read-out: percentage of inhibition KLK4
T1 construct: purchased R&D Systems

[2] = biological target: T2, KLK11 (Homo sapiens, UniProt Q9UBX7); experiment: Selectivity screening, KLK11; format: biochemical; conditions: 50 μM compound, without Fe3+; read-out: percentage of inhibition KLK11
T2 construct: purchased R&D Systems
T2 sequence (Q9UBX7 54-282): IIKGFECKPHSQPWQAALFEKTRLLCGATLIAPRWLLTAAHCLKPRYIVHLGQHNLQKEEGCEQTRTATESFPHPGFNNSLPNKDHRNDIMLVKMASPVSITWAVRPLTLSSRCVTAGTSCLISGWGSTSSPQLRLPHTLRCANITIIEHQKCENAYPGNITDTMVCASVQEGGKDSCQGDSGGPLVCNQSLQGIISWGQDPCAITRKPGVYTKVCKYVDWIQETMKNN

[3] = biological target: T3, KLK14 (Homo sapiens, UniProt Q9P0G3); experiment: Selectivity screening, KLK14; format: biochemical; conditions: 50 μM compound, without Fe3+; read-out: percentage of inhibition KLK14
T3 construct: purchased R&D Systems
T3 sequence (Q9P0G3 25-251): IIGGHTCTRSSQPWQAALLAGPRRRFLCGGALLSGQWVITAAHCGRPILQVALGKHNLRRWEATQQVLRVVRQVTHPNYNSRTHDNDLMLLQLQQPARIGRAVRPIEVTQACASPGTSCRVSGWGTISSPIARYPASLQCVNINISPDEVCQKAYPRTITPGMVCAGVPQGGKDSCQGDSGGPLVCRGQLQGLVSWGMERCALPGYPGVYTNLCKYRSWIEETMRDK

[4] = Calcein transchelation (calcein release) assay; format: physicochemical; conditions: calcein 100 nM, 4 h at room temperature; estimation, assay not fully quantitative; read-out: Apparent affinity (pseudo‐affinity constant Kd for Fe3+)
[5] = UV–vis spectroscopy of Fe3+ chelation and complex stability; format: physicochemical; conditions: activity buffer pH 7.4, 1:1 ratio, t = 0 to 240 min
Protocol: UV–vis analysis of DFX was first performed to monitor the chelation process and the stability of the Fe^3+ complex over time at a 1:1 ratio, typically representing the duration of inhibition assay (30 min to 4 h) (Figure S1, Supporting Information). In these conditions of pH (7.4) and ligand‐to‐iron ratio and according to Steinhauser et al. the main species in solution is assigned to [Fe(DFX)2]^3−.^[ [49] ^] Indeed, we aimed to explore not only the chelation properties but also the impact of the chelated species on enzyme inhibition.
2.c. Chelation properties, iron interactions, and selectivity profiles of selected compounds targeting KLK activity.
Figure S2: Stability of the chelated species as monitored by spectrophotometry. UV/VIS spectra of molecules alone using activity buffer at pH 7.4 (in orange at 500 µM) or in the presence of FeCl3 (ratio of 1:1) at different times (t = 0 in red, 30 min in black, 60 min in blue and 240 min in green). The purple trace corresponds to iron only at 500 µM All data are representative of 2 independent experiments performed in duplicate. […]

[6] = CCK8 cell viability assay, SH-SY5Y; format: cell-based; conditions: human, SH-SY5Y neuroblastoma cells, 25 and 50 μM, in absence or presence of iron (100 µM FAC), read-out: percentage of cell viability
Protocol: (§1) Human neuroblastoma cell line (SH-SY5Y) was purchased at American Type Culture Collection
(§2) Both cell lines were cultured in Dulbecco’s Modified Eagle Medium (DMEM)
(§3) containing 10% heat inactivated fetal bovine serum (FBS), 1% Penicillin/Streptomycin, 10 mM
(§4) Sodium Pyruvate, 2 mM L-Glutamine and 4,5 g/L D-glucose at 37°C, in a 5% humidified
(§5) incubator. Cells were cultivated until 80% confluence in flasks then were plated in 96-well
(§6) plates. For this experiment, SH-SY5Y were used at 10th passage and HMC3 at 13th. SH-SY5Y
(§7) cells were seeded at a density of 3x10^4 cells/well and HMC3 at a density of 10^4 cells/well. After
(§8) seeding, cells were left in complete medium overnight to adhere to the plates. After that, cells
(§9) were treated using inhibitors solubilized in DMSO at stock concentrations of 2,5 mM or 5 mM
(§10) with or without 10 mM iron. Iron solution was prepared by using FAC (Ferric Ammonium
(§11) Citrate, Sigma®) at stock concentration of 25 mM. After 24h of treatment, cell viability was
(§12) assessed with the CCK8 (Cell-Counting Kit 8) from TargetMol. After treatments, 10 µL of CCK8
(§13) reagent was diluted in 90 µL of complete medium and added to each well. After 3 hours at
(§14) 37°C, cell viability was assessed by absorbance measurement at 460 nm. Each viability assay
(§15) is the mean of two independent experiments performed in triplicates.
(§16) treated for 24h with the two selected concentrations of inhibitor (25 µM or 50 µM)
(§17) preincubated or not with 100 µM of FAC. The data are the mean of two independent
experiments performed in triplicates.

[7] = CCK8 cell viability assay, HMC3; format: cell-based; conditions: human, HMC3 microglial cells; HMC3, 24h, 25 and 50 μM, in absence or presence of iron (100 µM FAC); read-out: percentage of cell viability
Protocol: as §1, §2, §3, §4, §5, §6, §7, §8, §9, §10, §11, §12, §13, §14, §15, §16, §17
experiments performed in triplicates.

[8] = test system: KLK's of the CNS triad (KLK1‐KLK6‐KLK8); experiment: Reversibility analysis by dilution after preincubation; format: biochemical, human; conditions: 100-fold dilution after 15 min preincubation
Protocol: Aliquots of reaction mixtures (1 μL) were added to 99 μL of buffer containing the fluorogenic substrate (experimental conditions identical to the routine protocol used for a given enzyme). The mechanism of inhibition was determined by varying substrate and inhibitor concentrations, the type of inhibition and inhibition parameter (Ki or Ki′) are determined by Dixon's plots.

[9] = biological target: T4, KLK5 (Homo sapiens, UniProt Q9Y337); experiment: Selectivity screening, KLK5; conditions: read-out: percentage of inhibition KLK5
T4 sequence (Q9Y337 67-293 limits assumed): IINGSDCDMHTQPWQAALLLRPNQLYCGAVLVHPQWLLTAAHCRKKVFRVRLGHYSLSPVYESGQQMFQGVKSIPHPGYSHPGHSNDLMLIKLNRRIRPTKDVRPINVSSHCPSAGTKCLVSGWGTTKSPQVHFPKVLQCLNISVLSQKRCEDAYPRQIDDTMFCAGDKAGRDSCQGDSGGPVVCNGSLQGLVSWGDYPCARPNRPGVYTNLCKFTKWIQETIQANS
Protocol: (§18) All enzyme stocks were stored at −20 °C and purchased from R&D Systems as proenzymes (KLK6, KLK8, KLK13) or as mature and active forms (KLK5). Activation of KLK6, KLK8, and KLK13 is performed in optimized buffers. The activation reaction is initiated by Lysyl‐Endopeptidase at 2.5 mU mL^−1 (Wako Bioproducts). The activation reaction is stopped by diluting the enzyme to 0.5 μg mL^−1 in assay buffer (50 mM Tris, 1 M Citrate, 0.05% w/v Brij‐35, pH 8) to obtain an active enzyme stock. KLK1 was purchased from R & D Systems as pro‐KLK1. Activation of KLK1 is performed in 50 mM Tris‐HCl, 10 mM CaCl2, 150 mM NaCl, 0.05% Brij‐35, pH 7.5. The activation reaction is initiated by bacterial thermolysin at 0.4 μg mL^−1 (Sigma‐Aldrich) and stopped by addition of 100 mM EDTA (Sigma‐Aldrich) to obtain an active KLK1 stock at the same concentration of 100 μg mL^−1. The activation reactions for KLK7 are initiated bacterial thermolysin at 0.4 μg mL^−1 (Sigma‐Aldrich) and stopped by addition of 100 mM EDTA (Sigma‐Aldrich) to obtain active stocks. All enzyme stocks were stored at −20 °C. H‐PFR‐AMC (KLK1), Boc‐VPR‐AMC (KLK5, KLK8, KLK13), Boc‐QAR‐AMC (KLK6, Plasmin), substrates were purchased from Bachem. MeO‐Suc‐RPY‐AMC (KLK7) substrate was purchased from AAT Bioquest. Plasmin (Sigma‐Aldrich) was purchased in mature and active form.
(§19) Compounds were screened on KLKs using a BMG Fluostar microplate reader (black 96‐well microplates). Hit compounds were screened on the selected group of enzymes using optimized concentrations and buffers (KLK1 0.8 nM, KLK4 10 nM, KLK5 0.2 nM; KLK6 1.9 nM; KLK7 6 nM; KLK8 0.2 nM; KLK11 5.2 nM, KLK13 0.47 nM, KLK14 2.5 nM, plasmin 3.3 nM, thrombin 0.1 nM, tissue‐plasminogen activator (tPA) 0.1 nM, matriptase 1 nM, cathepsin L 2 nM) either in absence or prior preincubation in the presence of 100 μM of Fe^3+.
(§20) The proteases are first preincubated for 15 min with each compound (50 and 100 μM) or with DMSO (<2%, negative control) in a total volume of 85 μL of 50 mM Tris buffer, 1 M citrate, 0.05% Brij‐35, pH 7, 37 °C. The reaction is triggered by the appropriate substrate at the optimized concentration in 15 μL of 50 mM Tris buffer, 1 M citrate, 0.05% Brij‐35, pH 8 (H‐PFR‐AMC 100 μM; Boc‐VPR‐AMC 100 μM; Boc‐QAR‐AMC 100 μM; Meo‐Suc‐RPY‐AMC 150 μM, Z‐LR‐AMC 100 μM, Z‐GGR‐AMC 100 μM) and followed for 30 min at 37 °C. […] The release of the AMC fluorescent group is detected using the following wavelengths: λex = 360 nm and λem = 460 nm. The percent inhibition is calculated from Equation (1) where V 0 is the initial rate of the DMSO control, the initial rate in the presence of the inhibitor V i. (1) %inhibition=(1−(vi/v0))×100

[10] = biological target: T5, KLK13 (Homo sapiens, UniProt Q9UKR3); experiment: Selectivity screening, KLK13; conditions: read-out: percentage of inhibition KLK13
T5 sequence (Q9UKR3 26-277 limits assumed): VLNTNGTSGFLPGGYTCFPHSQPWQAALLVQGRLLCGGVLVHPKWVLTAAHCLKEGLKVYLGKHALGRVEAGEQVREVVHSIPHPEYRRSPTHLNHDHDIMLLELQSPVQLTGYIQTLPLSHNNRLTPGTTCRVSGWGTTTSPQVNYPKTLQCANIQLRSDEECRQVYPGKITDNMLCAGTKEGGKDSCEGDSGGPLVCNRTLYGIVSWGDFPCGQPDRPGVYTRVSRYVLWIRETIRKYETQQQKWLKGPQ
Protocol: as §18, §19, §20

[11] = biological target: T6, KLK8 (Homo sapiens, UniProt O60259); experiment: KLK8 fluorogenic enzyme inhibition assay (Boc-VPR-AMC)
T6 sequence (O60259 33-260): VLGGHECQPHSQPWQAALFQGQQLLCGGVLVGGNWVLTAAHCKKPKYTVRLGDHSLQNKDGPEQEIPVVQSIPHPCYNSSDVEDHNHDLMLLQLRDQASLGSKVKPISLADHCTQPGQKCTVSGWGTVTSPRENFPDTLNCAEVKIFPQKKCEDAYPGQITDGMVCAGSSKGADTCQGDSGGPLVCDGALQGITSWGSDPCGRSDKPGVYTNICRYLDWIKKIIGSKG
Protocol: (§21) All enzyme stocks were stored at −20 °C and purchased from R&D Systems as proenzymes (KLK6, KLK8, KLK13) or as mature and active forms (KLK5). Activation of KLK6, KLK8, and KLK13 is performed in optimized buffers. The activation reaction is initiated by Lysyl‐Endopeptidase at 2.5 mU mL^−1 (Wako Bioproducts). The activation reaction is stopped by diluting the enzyme to 0.5 μg mL^−1 in assay buffer (50 mM Tris, 1 M Citrate, 0.05% w/v Brij‐35, pH 8) to obtain an active enzyme stock. KLK1 was purchased from R & D Systems as pro‐KLK1. Activation of KLK1 is performed in 50 mM Tris‐HCl, 10 mM CaCl2, 150 mM NaCl, 0.05% Brij‐35, pH 7.5. The activation reaction is initiated by bacterial thermolysin at 0.4 μg mL^−1 (Sigma‐Aldrich) and stopped by addition of 100 mM EDTA (Sigma‐Aldrich) to obtain an active KLK1 stock at the same concentration of 100 μg mL^−1. […] All enzyme stocks were stored at −20 °C. H‐PFR‐AMC (KLK1), Boc‐VPR‐AMC (KLK5, KLK8, KLK13), Boc‐QAR‐AMC (KLK6, Plasmin), substrates were purchased from Bachem. […] Plasmin (Sigma‐Aldrich) was purchased in mature and active form.
as §19, §20
(§22) The equation is entered in the Kaleidagraph 4.5 software for curve fitting f([I]) = % Inhibition, where [I] is the inhibitor concentration.
(§23) The mechanism of inhibition was determined by varying substrate and inhibitor concentrations, the type of inhibition and inhibition parameter (Ki or Ki′) are determined by Dixon's plots.

[12] = test system: targeted KLKs (KLK1, KLK6, KLK8); experiment: Impact of preincubated compound (50 μM) and Fe3+ (100 μM) on targeted KLKs; format: biochemical, human; conditions: compound 50 μM preincubated with Fe3+ 100 μM
Protocol: Next, we evaluated the impact of preincubated mixtures of each compound at 50 μM and Fe^3+ at 100 μM to model an iron overload condition on targeted KLKs (Figure S5, Supporting Information).

[13] = biological target: KLK1 (Homo sapiens, UniProt P06870); experiment: KLK1 fluorogenic enzyme inhibition assay (H-PFR-AMC); conditions: for IC50: IC50 KLK1, 15 min preincubation at 37 °C, NI = not a hit (not above 50% inhibition at 50 μM)
Sequence of KLK1 (P06870 25-262): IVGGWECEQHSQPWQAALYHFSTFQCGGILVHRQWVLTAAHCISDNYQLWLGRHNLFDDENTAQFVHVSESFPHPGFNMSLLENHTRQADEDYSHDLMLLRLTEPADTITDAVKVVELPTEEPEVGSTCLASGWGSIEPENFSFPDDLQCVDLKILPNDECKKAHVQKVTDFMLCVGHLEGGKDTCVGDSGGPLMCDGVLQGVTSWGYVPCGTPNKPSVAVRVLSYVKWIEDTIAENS
Protocol: as §21, §19, §20, §22, §23

[14] = biological target: KLK6 (Homo sapiens, UniProt Q92876); experiment: KLK6 fluorogenic enzyme inhibition assay (Boc-QAR-AMC); conditions: read-out: percentage of inhibition KLK6
Protocol: as §21, §19, §20, §22, §23

[15] = IC50 KLK8, 15 min preincubation at 37 °C, NI = not a hit (not above 50% inhibition at 50 μM)

T1 sequence (Q9Y5K2 31-254): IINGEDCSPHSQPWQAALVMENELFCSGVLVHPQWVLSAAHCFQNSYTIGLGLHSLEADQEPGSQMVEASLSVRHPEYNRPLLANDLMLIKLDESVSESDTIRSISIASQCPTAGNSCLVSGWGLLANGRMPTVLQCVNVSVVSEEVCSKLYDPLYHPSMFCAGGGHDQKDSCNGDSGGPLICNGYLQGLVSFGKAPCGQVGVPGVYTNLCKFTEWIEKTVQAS

O=C(O)c1ccc(-n2nc(-c3ccccc3O)nc2-c2ccccc2O)cc1 [3a, Deferasirox]
inhibition at 50 µM [1]: 80.6% | inhibition at 50 µM [2]: 90.6% | inhibition at 50 µM [3]: 94.2% | Kd [4]: 0.549 ± 0.007 nM | UV–vis spectrum in the presence of FeCl3 (iron complex formation) [5]: appearance of an absorption band with a maximum at 468 nm | viability at 24 h [6]: > 80% | viability at 24 h [7]: > 80% | reversibility and time dependence of inhibition [8]: reversible and time‐independent inhibitors | inhibition at 50 µM [9]: 85.1% | inhibition at 50 µM [10]: 95.1% | Ki′ KLK8 ([11]; Dixon plot, 100 μM substrate, without Fe3+): 8 µM | Type of inhibition KLK8 ([11]; Dixon plot, without Fe3+): Uncompetitive | Type of inhibition KLK8 ([11]; Dixon plot, without Fe3+, listed as DFX): uncompetitive inhibition | IC50 [11, 15]: 29.2 ± 1 µM | IC50 ([11]; IC50 KLK8, initial screening of an in‐house array of 1,2,4‐triazole derivatives): ~30 µM | inhibition at 50 µM ([11]; read-out: percentage of inhibition KLK8): 70.1%

Oc1ccccc1-c1n[nH]c(-c2ccccc2O)n1 [3c]
Kd [4]: 0.032 ± 0.012 nM | change of inhibitory activity in the presence of iron [12]: significant higher inhibitory potency in the presence of Fe^3+ on all KLKs | IC50 [11, 15]: > 50 µM

O=C(c1ccccc1)n1nc(-c2ccccc2O)nc1-c1ccccc1O [3e]
inhibition at 50 µM [1]: 67.2% | Kd [4]: 0.41 ± 0.035 nM | viability at 24 h [6]: > 80% | viability at 24 h [7]: > 80% | reversibility and time dependence of inhibition [8]: reversible and time‐independent inhibitors | inhibition at 50 µM [9]: 98.8% | inhibition at 50 µM [10]: 97.1% | Ki [13]: 24 µM | Type of inhibition KLK1 ([13]; Dixon plot, without Fe3+): competitive inhibitor | IC50 [13]: 23.3 ± 0.9 µM | inhibition at 50 µM ([13]; read-out: percentage of inhibition KLK1): 82.1% | inhibition at 50 µM [14]: 82.4% | IC50 [11]: > 50 µM

CCOC(=O)[C@H]1CC[C@H](n2nc(-c3ccccc3O)nc2-c2ccccc2O)CC1 [3fa]
IC50 [11]: > 50 µM

O=C(O)[C@H]1CC[C@H](n2nc(-c3ccccc3O)nc2-c2ccccc2O)CC1 [3fb]
IC50 [11]: > 50 µM

CCOC(=O)Cn1nc(-c2ccccc2O)nc1-c1ccccc1O [3g]
IC50 [11]: > 50 µM

O=C(O)Cn1nc(-c2ccccc2O)nc1-c1ccccc1O [3h]
Kd [4]: 0.22 ± 0.024 nM | IC50 [11]: > 50 µM

COC(=O)c1ccc(-n2nc(-c3ccccc3O)nc2-c2ccccc2O)cc1 [3i]
IC50 [11]: > 50 µM

COC(=O)CNC(=O)c1ccc(-n2nc(-c3ccccc3O)nc2-c2ccccc2O)cc1 [3ja]
Kd [4]: 0.175 ± 0.015 nM | IC50 [11]: > 50 µM

O=C(O)CNC(=O)c1ccc(-n2nc(-c3ccccc3O)nc2-c2ccccc2O)cc1 [3jb]
Kd [4]: 0.078 ± 0.009 nM | IC50 [11]: 27 ± 0.6 µM

COC(=O)C(Cc1ccccc1)NC(=O)c1ccc(-n2nc(-c3ccccc3O)nc2-c2ccccc2O)cc1 (stereo not drawn) [3ka]
IC50 [11]: > 50 µM

O=C(NC(Cc1ccccc1)C(=O)O)c1ccc(-n2nc(-c3ccccc3O)nc2-c2ccccc2O)cc1 (stereo not drawn) [3kb]
IC50 [13]: 16.4 ± 1 µM | IC50 [11]: 24.8 ± 1.9 µM

COC(=O)C(Cc1c[nH]c2ccccc12)NC(=O)c1ccc(-n2nc(-c3ccccc3O)nc2-c2ccccc2O)cc1 (stereo not drawn) [3la]
Kd [4]: 0.13 ± 0.02 nM | IC50 [11]: > 50 µM

COC(=O)C1CCCN1C(=O)c1ccc(-n2nc(-c3ccccc3O)nc2-c2ccccc2O)cc1 (stereo not drawn) [3ma]
Kd [4]: 0.105 ± 0.022 nM | IC50 [11]: > 50 µM

Oc1ccccc1-c1nc(-c2ccccc2O)n(-c2ccccc2)n1 [3n]
Kd [4]: 0.081 ± 0.045 nM | IC50 [11, 15]: > 50 µM

— publication PMC12221113, “Deferasirox Derivatives as Inhibitors of Kallikrein‐Related Peptidases Associated to Neurodegenerative Diseases” (Chemmedchem, 2025)
